pIC50: −log10 of the molar value.
Target: Human B0AT1 (Homo sapiens (Human), UniProt Q695T7)
Test: hB0AT1 inhibitory test (phenylalanine uptake)
Format: cell-based
Conditions: Human B0AT1 stable expression CHO cells; [3H]-L-phenylalanine uptake, phenylalanine 0.25 mM
Procedure, shortened: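 CHO cells stably expressing human B0AT1, in sodium-containing HEPES buffer with 0.01% BSA, preincubated with compound (0.5% DMSO) 30 min or longer at ambient temperature. Uptake of [3H]-L-phenylalanine (0.25 mM final) read by scintillation, analysed at 100-200 min; non-specific uptake from […] N-(4-bromophenyl)-3,5-dichloro-2-hydroxybenzamide, IC50 by logistic nonlinear regression.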

Chain of Human B0AT1 (Q695T7 whole entry): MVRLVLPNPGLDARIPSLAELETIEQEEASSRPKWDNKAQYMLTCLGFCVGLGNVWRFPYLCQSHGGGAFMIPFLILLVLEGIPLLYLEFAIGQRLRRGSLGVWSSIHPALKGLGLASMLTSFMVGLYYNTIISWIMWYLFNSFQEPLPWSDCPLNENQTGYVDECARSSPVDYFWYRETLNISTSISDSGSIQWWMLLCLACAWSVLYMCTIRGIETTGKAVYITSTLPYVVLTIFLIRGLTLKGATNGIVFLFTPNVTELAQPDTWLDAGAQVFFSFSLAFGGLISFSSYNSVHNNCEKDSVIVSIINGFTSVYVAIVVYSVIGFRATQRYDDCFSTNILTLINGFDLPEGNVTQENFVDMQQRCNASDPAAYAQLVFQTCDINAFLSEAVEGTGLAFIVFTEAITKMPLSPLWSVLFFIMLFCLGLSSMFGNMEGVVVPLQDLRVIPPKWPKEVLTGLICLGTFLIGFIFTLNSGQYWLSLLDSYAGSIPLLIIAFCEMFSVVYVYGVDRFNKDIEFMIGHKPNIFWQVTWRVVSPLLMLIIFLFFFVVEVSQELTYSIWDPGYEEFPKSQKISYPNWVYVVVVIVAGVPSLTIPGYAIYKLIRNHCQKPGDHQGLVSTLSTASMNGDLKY

Row | Compound | pIC50
1 | COCCN(Cc1ncccc1Cl)C(=O)CNC(=O)/C=C/c1ccc(C(F)(F)F)cc1 [I-55] | 6.91
2 | O=C(/C=C/c1ccc(C(F)(F)F)cc1)NCC(=O)N1CCN2CCOCC2C1 (stereo not shown) [I-41] | 6.08
3 | O=C(/C=C/c1ccc(C(F)(F)F)cc1)NCC(=O)N1CCCC(n2cccn2)C1 (stereo not shown) [I-74] | 5.88
4 | O=C(/C=C/c1ccc(C(F)(F)F)cc1)NCC(=O)N1CCn2c(nnc2C(F)(F)F)C1 [I-22] | 6.67
5 | CC(C)c1ccc(/C=C/C(=O)NCC(=O)N2CCN(C)CC2)cc1 [I-106] | 6.56
6 | NC(=O)c1ccc2c(c1)CCN(C(=O)CNC(=O)/C=C/c1ccc(C(F)(F)F)cc1)C2 [I-281] | 7.68
7 | CO[C@H]1CCN(C(=O)CNC(=O)/C=C/c2ccc(C(F)(F)F)cc2)C1 [I-60] | 6.04
8 | O=C(/C=C/c1ccc(C(F)(F)F)cc1)NCC(=O)N1CCc2oncc2C1 [I-39] | 7.54
9 | C[C@@H]1c2ncnn2CCN1C(=O)CNC(=O)/C=C/c1ccc(C(F)(F)F)cc1 [I-204] | 6.09
10 | Cc1nc2n(n1)CCN(C(=O)CNC(=O)/C=C/c1ccc(C(F)(F)F)cc1)C2 [I-174] | 7.32

Reference: patent publication US20250170126A1 (MITSUBISHI TANABE PHARMA CORPORATION, priority 2022, published 2025)
